Data as given in patent publication US20250332078A1, “COSMETIC AND/OR PHARMACEUTICAL COMPOSITIONS CONTAINING CANNABINOIDS” (priority 2020, published 2025).
Read-outs that look alike come from different tables or passages of the source.

Experiments:
[1] = Color stabilization in o/w emulsion formulation; type: physicochemical
Experimental: Besides colour stability of pure product for end customer colour stability of the formulation is even more important. Discoloration is related for customer to shelf life, reduced efficacy and microbial contamination. Therefore, blends were tested in simple o/w emulsions adding an amino carboxylate and in the alternative a phytic acid salt. The results are shown in […]

[2] = Colour stability of cannabidiol/bisabolol blend with stabilizers (LICO 690, L*a*b, ΔE); type: physicochemical; details: FIG. 2
Experimental: Colour Stability is an important criterion for customers. Particularly, a product should not change colour during storage. Especially long term stability at room temperature dark stored (RTD) is important, as this simulates storage at a customer. To evaluate effect different antioxidants are tested in common used concentration (see Table 7). Colour is evaluated with LICO 690 (L*a*b-system). Results are compared with ΔE according to the following equation: […]

IL8 = IL8 ELISA on HaCaT cells, inflammation triggered with IL1α; type: cell-based, human; details: for IL8 inhibition / inhibition at 2.2 µM / inhibition at 4.6 µM / inhibition at 10 µM: HaCaT; for anti-inflammatory activity (IL8 secretion), in words: Example 2; for inhibition at 2.2 µM / inhibition at 4.6 µM / inhibition at 10 µM: Homo sapiens, read-out: IL8 inhibition
Description: Inflammation in the skin occurs after UV or chemical exposure, microbial infection or wounding to form a defense against pathogens. However, inflammation in response to UV is associated with degenerative processes in the skin resulting in photoaging, wrinkle and age spot formation. In order to identify the Anti-inflammatory (AI) potential of the test samples the inflammatory mediators interleukin 8 (IL8) were quantified, which initiate and mediate inflammation through recruitment of inflammatory cells from the vasculature. Another object has been identification of the synergistic activity of the test substances. For this purpose, the individual cellular AI potential of bisabolol and synthetic CBD (hereinafter referred to as “SymDStress” obtained from Symrise AG, Holzminden, Germany) with their combination in 100:5, 100:4, 100:3, 100:2 and 100:1 ratios were examined.
Interleukin 8 (IL-8) or CXCL8 is a chemokine produced by macrophages and other cell types such as epithelial cells, airway smooth muscle cells and endothelial cells. In humans, the interleukin-8 protein is encoded by the IL8 gene IL-8 is initially produced as a precursor which undergoes cleavage to create several active IL-8 isoforms. In culture, a 72 amino acid peptide is the major form secreted by all kinds of cells. Interleukin-8 is a key mediator associated with inflammation where it plays a key role in neutrophil recruitment and neutrophil degranulation. As an example, it has been cited as a pro-inflammatory mediator in gingivitis, psoriasis and other diseases. IL8 secretion is increased by various kinds of stress including UV & oxidant stress, which thereby cause the recruitment of inflammatory cells and induces a further increase in oxidant stress mediators, making it a key parameter in localized inflammation.
The ELISA assay uses a solid-phase type of enzyme immunoassay (EIA) to detect the presence of a protein in a liquid sample using antibodies directed against the protein to be measured. Performing an ELISA involves at least one antibody with specificity for that particular protein. The sample with an unknown amount of protein is immobilized on a solid support (usually a polystyrene microtiter plate). After the protein is immobilized, the detection antibody is added, forming a complex with the protein. The detection antibody can be covalently linked to an enzyme or can itself be detected by a secondary antibody that is linked to an enzyme through bio-conjugation. Between each step, the plate is typically washed with a mild detergent solution to remove any proteins or antibodies that are non-specifically bound. After the final wash step, the plate is developed by adding an enzymatic substrate to produce a visible signal, which indicates the quantity the protein to be measured in the sample.
In the present test approach, the IL8 produced and secreted by cells were determined in an Enzyme linked immunosorbance assay (ELISA) from cell supernatants utilizing antibodies detecting the IL8. The assay was performed on HaCaT cells by addition of test substances and their incubation for 6 h (37° C.). Afterwards, inflammation was triggered with IL1α for 2 h or respectively 24 h and IL8 was measured. Therefore, the quantitative sandwich enzyme immunoassay technique was employed. A monoclonal antibody specific for human IL-8 was pre-coated onto a microplate. Standards and samples/supernatants were pipetted into the wells and any IL-8 present was bound by the immobilized antibody. After washing away any unbound substances, an enzyme-linked polyclonal antibody specific for human IL-8 was added to the wells. Following a wash to remove any unbound antibody-enzyme reagent, a substrate solution was added. A color developed in proportion to the amount of IL-8 bound in the initial step. Therefore, the IL8 concentrations for unknown samples are interpolated from the standard curve. […]

NHDF cells = assay: DCF assay, cellular anti-oxidative capacity (ROS reduction); type: cell-based, human
Experimental: To quantify intracellular radicals in a cell model the dichlorofluorescein (DCF) assay was performed. Therefore, normal dermal human fibroblasts were used as a model for the skin dermis, where ROS would damage cells and the surrounding tissue, which as opposed to keratinocytes accumulate damage over the human life time. […] By intracellular esterases and oxidation, the non-fluorescent H2DCFDA is converted to the highly fluorescent 2′,7′-dichlorofluorescein (DCF). The non-fluorescent fluorescin (2′,7′-dichlorofluorescein diacetate (DCFH-DA) pass the cell membranes. In the cytoplasm, it is cleaved by intracellular esterases and thereby trapped in the cell. The oxidation of DCFH to DCF by intracellularly existing ROS originated from H2O2 added to the cells (reactive oxygen species) results in fluorescence.
Determination of the anti-oxidative capacity is performed in 96-well microplates from Nunc (Wiesbaden, Germany) and with the microplate reader “Spark” from Tecan (Crailsheim, Germany).
Cells are seeded in a black 96 well microplate with transparent bottom and incubated at 37° C. After 24 hours the cells were starved with 0.1% FBS for 24 h. Then the supernatant is aspirated and the test samples are added and incubated for 24 h. As a positive control Trolox is always co-tested. Then the DCF Assay is performed and the fluorescence is measured from bottom of well at EX/EM 485/528 nm. The cellular AOX capacity is expressed in percent as ROS reduction, which can be determined by rule of proportion in combination with the control.

Water solubility = type: physicochemical
[3] = Recrystallization in emulsion (Olympus microscope IX-70, polarized light); type: physicochemical
Experimental: To save energy and reduce CO2 there's a trend for cold process emulsions. So it's recommended to use liquid ingredients or well soluble ingredients. […] Recrystallization is evaluated with Olympus microscope IX-70 (60fold) polarized light. As synergist effects in terms of efficacy had been observed, SymDStress is solved in Dragosantol® 100 (Bisabolol). […] The mixture is suitable for cold/cold, hot/cold and cold/cold process emulsions, gels etc.
As synergist effects in terms of efficacy had been observed, SymD Stress is solved in Dragosantol® 100 (Bisabolol). […] Mixture is suitable for cold/cold, hot/cold and cold/cold process emulsions, gels. […] (see FIG. 1). After 6M 5° C. no change in formulation containing Bisabolol. Bisabolol is a very effective solvent for Cannabidiol and helps to prevent recrystallization in target application.

[4] = ABTS assay, chemical anti-oxidative capacity
Experimental: The ABTS-Assay is a cell free in vitro test for the evaluation of the chemical AOX capacity. The assay principle bases on the reduction and the involved de-colorization of the green colored cationic radical 2,2′-Azinobis(3-ethylbenzothiazoline 6-sulfonic acid) (ABTS+) by antioxidants. The de-colorization can be measured photometrically at 734 nm. Determination of the anti-oxidative capacity is performed in 96-well microplates from Nunc (Wiesbaden, Germany) and with the microplate reader “Spark” from Tecan (Crailsheim, Germany).
Samples were incubated for 10 min at 30° C. with the 2,2′-Azinobis-(3-ethylbenzothiazoline-6-sulfonate (ABTS) radical cation (Sigma, St. Louis, USA) obtained by chemical conversion of ABTS with potassium persulfate (K2S2O8). As a positive control Trolox was co-tested. The degree of de-colorization was determined photometrically at 734 nm. Results are averaged from 2 independent experiments performed in quadruple technical replicates. The anti-oxidative capacity is expressed in IC50 values (concentration that scavenges 50% of the cationic radical relative to the untreated ABTS solution), which is determined by 4-parameter logistic regression.

[5] = Table 1, 0.000034 % (0.0011 mM)
[6] = Table 1, 0.000074 % (0.0023 mM)
[7] = Table 1, 0.000159 % (0.0050 mM)
[8] = Table 1, 0.000343 % (0.0110 mM)

With `O=C([O-])CC[C@@H](C(=O)[O-])N(CC(=O)[O-])CC(=O)[O-].[Na+].[Na+].[Na+].[Na+]` [Tetrasodium Glutamate Diacetate] the “discoloration in the end-formulation, in words” value ([1]; Table 9, FIG. 4) was “reduced discoloration”.
For Tocopherol, the “discoloration of solution, in words” value [2] was “can prevent solution from discoloration”.
For `O=C([O-])CN(CCN(CC(=O)[O-])CC(=O)O)CC(=O)O.[Na+].[Na+]` [Disodium EDTA], the “discoloration of formulation, in words” value ([1]; after 1M storage at RTL, FIG. 3) was “excellent stabilizing agent against discoloration”.
Work on `C=C(C)[C@@H]1CCC(C)=C[C@H]1c1c(O)cc(CCCCC)cc1O` [CBD (natural), cannabidiol, reference compound] yielded an IL8 inhibition (IL8; [5]) of −0.85%, an IL8 inhibition (IL8; [6]) of 4.84% and an IL8 inhibition (IL8; [7]) of 11.42%. For the same molecule, the IL8 inhibition (IL8; [8]) was 31.90%.
With `CC(C)=CCC[C@](C)(O)[C@@H]1CC=C(C)CC1` [α-bisabolol, alpha-bisabolol] the ROS reduction (NHDF cells; Table 6, 0.00002847 % (0.00100 mMol/l)) was 10.61%, the “anti-inflammatory activity (IL8 secretion), in words” value (IL8) was “opposite effect” and the inhibition at 2.2 µM (IL8; Table 2, 0.0022 mM) was -14%. The inhibition at 4.6 µM (IL8; Table 2, 0.0046 mM) was -3%, the inhibition at 10 µM (IL8; Table 2, 0.01000 mM) was 1% and the IL8 inhibition (IL8; Table 3, 0.002847 % (0.100 mM)) was 39%.
In the case of `C=C(C)[C@@H]1CCC(C)=C[C@H]1c1c(O)cc(CCCCC)cc1O` [CBD (synthetic), cannabidiol], the “water solubility, in words” value (Water solubility) is reported as “low water solubility”, the recrystallization in formulation ([3]; 0.025% CBD, after 1M 5° C.) is reported as “recrystallization can be observed” and the recrystallization in emulsion ([3]; after 1M at Room temperature dark (RTD) storage) is reported as “recrystallization in emulsion is observed”. For the same molecule, the ROS reduction (NHDF cells; Table 5, 0.0000031 % (0.0001 mMol/l)) was 24.01%, the ROS reduction (NHDF cells; Table 5, 0.0000063 % (0.0002 mMol/l)) was 35.43% and the ROS reduction (NHDF cells; Table 5, 0.0000126 % (0.0004 mMol/l)) was 34.74%. The ROS reduction (NHDF cells; Table 5, 0.0000157 % (0.0005 mMol/l)) was 34.55%, the ROS reduction (NHDF cells; Table 5, 0.0000397 % (0.0013 mMol/l)) was 40.61% and the ROS reduction (NHDF cells; Table 5, 0.0000496 % (0.0016 mMol/l)) was 48.96%. The ROS reduction (NHDF cells; Table 5, 0.000094 % (0.0003 mMol/l)) was 40.4%, the ROS reduction (NHDF cells; Table 6, 0.000001256 % (0.00004 mMol/l)) was 7.20% and the ROS reduction (NHDF cells; Table 6, 0.000001570 % (0.00005 mMol/l)) was −5.44%. The “reducing intracellular ROS expression” value (NHDF cells; summary of Table 5) was “up to 50%”, the “anti-inflammatory activity (IL8 secretion), in words” value (IL8) was “significant anti-inflammatory activity” and the inhibition at 2.2 µM (IL8) was 6%. It also gave an inhibition at 4.6 µM (IL8) of 18%, an inhibition at 10 µM (IL8) of 31% and an IL8 inhibition (IL8; [5]) of −0.84%. The IL8 inhibition (IL8; [6]) was 13.91%, the IL8 inhibition (IL8; [7]) was 25.98% and the IL8 inhibition (IL8; [8]) was 34.25%. The IL8 inhibition (IL8; Table 3, 0.000150 % (0.005 mM)) was 21%, the “AOX capacity compared to the technical positive control, in words” value [4] was “higher AOX capacity” and the Anti-oxidative capacity ([4]; 0.0000160 %) was 23%. It also gave an Anti-oxidative capacity ([4]; 0.0000310 %) of 28%, an Anti-oxidative capacity ([4]; 0.000160 %) of 84% and an Anti-oxidative capacity ([4]; 0.000310 %) of 96%. The Anti-oxidative capacity ([4]; 0.000470 %) was 100% and the Anti-oxidative capacity ([4]; 0.000630 %) was 100%.
